According to patent US20200325177A1, “METHODS OF MAKING STREPTOGRAMIN COMPOSITIONS AND THE USE THEREOF” (THE REGENTS OF THE UNIVERSITY OF CALIFORNIA, priority 2017, published 2020):
Values after ≈ are worked out from the molar mass of the structure shown. Like-named read-outs stand apart in the source and are kept apart here.

Legend:
Assay type in all cases: cell-based
E. faecalis = assay: MIC, Gram-positive bacteria: E. faecalis; conditions: Enterococcus faecalis, column 1, read-out: Minimal Inhibitory Concentration (MIC) E. faecalis
E. faecium ATCC 35667 = assay: MIC, Gram-positive bacteria: E. faecium ATCC 35667; conditions: Enterococcus faecium, ATCC35667, column 2, read-out: Minimal Inhibitory Concentration (MIC) E. faecium ATCC 35667
E. faecium VRE; vanA = assay: MIC, Gram-positive bacteria: E. faecium VRE; vanA; conditions: Enterococcus faecium, column 3, read-out: Minimal Inhibitory Concentration (MIC) E. faecium VRE
S. aureus = assay: MIC, Gram-positive bacteria: S. aureus (strains not named); conditions: Staphylococcus aureus, read-out: Minimal Inhibitory Concentration (MIC) S. aureus
[1] = tested on: S. aureus Vat A streptogramin; assay: MIC, Gram-positive bacteria: S. aureus Vat A streptogramin; conditions: Staphylococcus aureus; Gram-positive; column 5; read-out: Minimal Inhibitory Concentration (MIC) S. aureus Vat A streptogramin
[2] = tested on: S. aureus Linezolid-resistant; cfr; assay: MIC, Gram-positive bacteria: S. aureus Linezolid-resistant; cfr; conditions: Staphylococcus aureus, column 9, read-out: Minimal Inhibitory Concentration (MIC) S. aureus Linezolid-resistant
S. pneumoniae = assay: MIC, Gram-positive bacteria: S. pneumoniae; conditions: Streptococcus pneumoniae, column 10, read-out: Minimal Inhibitory Concentration (MIC) S. pneumoniae
[3] = tested on: K. pneumoniae multidrug-resistant; assay: MIC, Gram-negative bacteria: K. pneumoniae multidrug-resistant; conditions: Klebsiella pneumoniae, read-out: Minimal Inhibitory Concentration (MIC) K. pneumoniae multidrug-resistant
P. aeruginosa ATCC 27853 = assay: MIC, Gram-negative bacteria: P. aeruginosa ATCC 27853; conditions: Pseudomonas aeruginosa, ATCC27853, read-out: Minimal Inhibitory Concentration (MIC) P. aeruginosa ATCC 27853
[4] = tested on: P. aeruginosa MDR clinical isolate; assay: MIC, Gram-negative bacteria: P. aeruginosa MDR clinical isolate; conditions: Pseudomonas aeruginosa, read-out: Minimal Inhibitory Concentration (MIC) P. aeruginosa MDR clinical isolate
H. influenzae ATCC 49247 = assay: MIC, Gram-negative bacteria: H. influenzae ATCC 49247; conditions: Haemophilus influenzae, ATCC49247, read-out: Minimal Inhibitory Concentration (MIC) H. influenzae ATCC 49247
Gram-Negative Organisms = assay: microbe, parasite or virus in culture
[5] = first unnamed S. aureus column (c4)
[6] = fourth unnamed S. aureus column (c8)
[7] = second unnamed S. aureus column (c6)
[8] = third unnamed S. aureus column (c7)
[9] = Acinetobacter baumannii, ATCC19606, read-out: Minimal Inhibitory Concentration (MIC), A. baumannii ATCC 19606
[10] = Escherichia coli, ATCC25922, read-out: Minimal Inhibitory Concentration (MIC), E. coli ATCC 25922
[11] = Escherichia coli, read-out: Minimal Inhibitory Concentration (MIC), E. coli BAS2006, OMP C, OMP F
[12] = Escherichia coli, read-out: Minimal Inhibitory Concentration (MIC), E. coli olC efflux defective
[13] = Escherichia coli, read-out: Minimal Inhibitory Concentration (MIC), E. coli permeability mutant BAS1314, IMP4213ZAB::TN10
[14] = Klebsiella pneumoniae, ATCC43816, read-out: Minimal Inhibitory Concentration (MIC), K. pneumoniae ATCC 43816
[15] = Escherichia coli, read-out: Minimal Inhibitory Concentration (MIC), E. coli ΔompC768, KanR insert

With CC1=C\[C@@H](O)CC(=O)Cc2nc(co2)C(=O)N[C@H](Cc2ccccc2)C(=O)O[C@H](C(C)C)[C@H](C)/C=C/C(=O)NC\C=C\1 [SA0202061] the MIC (E. faecalis) was 32 µg/mL (≈ 55.4 µM), the MIC (E. faecium ATCC 35667) was 32 µg/mL (≈ 55.4 µM) and the MIC (E. faecium VRE; vanA) was 64 µg/mL (≈ 111 µM). It also gave an MIC (S. aureus; [5]) of 64 µg/mL (≈ 111 µM), an MIC (S. aureus; [6]) of 64 µg/mL (≈ 111 µM) and an MIC (S. aureus; [7]) of 64 µg/mL (≈ 111 µM). For the same molecule, the MIC (S. aureus; [8]) was 64 µg/mL (≈ 111 µM), the MIC [1] was 64 µg/mL (≈ 111 µM) and the MIC [2] was over 64 µg/mL. The MIC (S. pneumoniae) was 16 µg/mL (≈ 27.7 µM), the MIC [3] was over 64 µg/mL and the MIC (P. aeruginosa ATCC 27853) was over 64 µg/mL. The MIC [4] was over 64 µg/mL, the MIC (H. influenzae ATCC 49247) was over 64 µg/mL and the MIC (Gram-Negative Organisms; [9]) was over 64 µg/mL. It also gave an MIC (Gram-Negative Organisms; [10]) of over 64 µg/mL, an MIC (Gram-Negative Organisms; [11]) of 16 µg/mL (≈ 27.7 µM) and an MIC (Gram-Negative Organisms; [12]) of 4 µg/mL (≈ 6.92 µM). For the same molecule, the MIC (Gram-Negative Organisms; [13]) was 4 µg/mL (≈ 6.92 µM) and the MIC (Gram-Negative Organisms; [14]) was over 64 µg/mL.

With CC1=C\[C@@H](O)CC(=O)Cc2nc(co2)C(=O)N[C@H](Cc2c[nH]c3ccccc23)C(=O)O[C@H](C(C)C)[C@H](C)/C=C/C(=O)NC\C=C\1 [SA0202089] the MIC (E. faecalis) was over 64 µg/mL, the MIC (E. faecium ATCC 35667) was 32 µg/mL (≈ 51.9 µM) and the MIC (E. faecium VRE; vanA) was 32 µg/mL (≈ 51.9 µM). It also gave an MIC (S. aureus; [5]) of 32 µg/mL (≈ 51.9 µM), an MIC (S. aureus; [6]) of 32 µg/mL (≈ 51.9 µM) and an MIC (S. aureus; [7]) of 32 µg/mL (≈ 51.9 µM). It also gave an MIC (S. aureus; [8]) of 32 µg/mL (≈ 51.9 µM), an MIC [1] of 64 µg/mL (≈ 104 µM) and an MIC [2] of over 64 µg/mL. It also gave an MIC (S. pneumoniae) of 32 µg/mL (≈ 51.9 µM), an MIC [3] of over 64 µg/mL and an MIC (P. aeruginosa ATCC 27853) of over 64 µg/mL. It also gave an MIC [4] of over 64 µg/mL, an MIC (H. influenzae ATCC 49247) of over 64 µg/mL and an MIC (Gram-Negative Organisms; [9]) of over 64 µg/mL. It also gave an MIC (Gram-Negative Organisms; [10]) of over 64 µg/mL, an MIC (Gram-Negative Organisms; [11]) of 32 µg/mL (≈ 51.9 µM) and an MIC (Gram-Negative Organisms; [12]) of 16 µg/mL (≈ 25.9 µM). It also gave an MIC (Gram-Negative Organisms; [13]) of 8 µg/mL (≈ 13 µM) and an MIC (Gram-Negative Organisms; [14]) of over 64 µg/mL.

For CC1=C\[C@@H](O)CC(=O)Cc2nc(co2)C(=O)N[C@H](CCCCN)C(=O)O[C@H](C(C)C)[C@H](C)/C=C/C(=O)NC\C=C\1 [SA0202094], the MIC (E. faecalis) was over 64 µg/mL, the MIC (E. faecium ATCC 35667) was over 64 µg/mL and the MIC (E. faecium VRE; vanA) was over 64 µg/mL. It also gave an MIC (S. aureus; [5]) of over 64 µg/mL, an MIC (S. aureus; [6]) of over 64 µg/mL and an MIC (S. aureus; [7]) of over 64 µg/mL. For the same molecule, the MIC (S. aureus; [8]) was over 64 µg/mL, the MIC [1] was over 64 µg/mL and the MIC [2] was over 64 µg/mL. The MIC (S. pneumoniae) was over 64 µg/mL, the MIC [3] was over 64 µg/mL and the MIC (P. aeruginosa ATCC 27853) was over 64 µg/mL. For the same molecule, the MIC [4] was over 64 µg/mL, the MIC (H. influenzae ATCC 49247) was over 64 µg/mL and the MIC (Gram-Negative Organisms; [9]) was over 64 µg/mL. It also gave an MIC (Gram-Negative Organisms; [10]) of over 64 µg/mL, an MIC (Gram-Negative Organisms; [11]) of over 64 µg/mL and an MIC (Gram-Negative Organisms; [12]) of over 64 µg/mL. For the same molecule, the MIC (Gram-Negative Organisms; [13]) was 32 µg/mL (≈ 57.3 µM), the MIC (Gram-Negative Organisms; [15]) was over 64 µg/mL and the MIC (Gram-Negative Organisms; [14]) was over 64 µg/mL.

For CC1=C\[C@@H](O)CC(=O)Cc2nc(co2)C(=O)N[C@H](Cc2ccc(O)cc2)C(=O)O[C@H](C(C)C)[C@H](C)/C=C/C(=O)NC\C=C\1 [SA0202097], the MIC (E. faecalis) was over 64 µg/mL, the MIC (E. faecium ATCC 35667) was over 64 µg/mL and the MIC (E. faecium VRE; vanA) was over 64 µg/mL. It also gave an MIC (S. aureus; [5]) of over 64 µg/mL, an MIC (S. aureus; [6]) of over 64 µg/mL and an MIC (S. aureus; [7]) of over 64 µg/mL. For the same molecule, the MIC (S. aureus; [8]) was over 64 µg/mL, the MIC [1] was over 64 µg/mL and the MIC [2] was over 64 µg/mL. For the same molecule, the MIC (S. pneumoniae) was 64 µg/mL (≈ 108 µM), the MIC [3] was over 64 µg/mL and the MIC (P. aeruginosa ATCC 27853) was over 64 µg/mL. The MIC [4] was over 64 µg/mL, the MIC (H. influenzae ATCC 49247) was over 64 µg/mL and the MIC (Gram-Negative Organisms; [9]) was over 64 µg/mL. The MIC (Gram-Negative Organisms; [10]) was over 64 µg/mL, the MIC (Gram-Negative Organisms; [11]) was over 64 µg/mL and the MIC (Gram-Negative Organisms; [12]) was 32 µg/mL (≈ 53.9 µM). It also gave an MIC (Gram-Negative Organisms; [13]) of 32 µg/mL (≈ 53.9 µM), an MIC (Gram-Negative Organisms; [15]) of over 64 µg/mL and an MIC (Gram-Negative Organisms; [14]) of over 64 µg/mL.

Work on CC1=C\[C@@H](O)CC(=O)Cc2nc(co2)C(=O)N2CCC[C@@H]2C(=O)O[C@H](C(C)(C)C)[C@H](C)/C=C/C(=O)NC\C=C\1 [SA0306004] yielded an MIC (E. faecalis) of over 64 µg/mL, an MIC (E. faecium ATCC 35667) of 32 µg/mL (≈ 59.1 µM) and an MIC (E. faecium VRE; vanA) of over 64 µg/mL. The MIC (S. aureus; [5]) was 32 µg/mL (≈ 59.1 µM), the MIC (S. aureus; [6]) was 32 µg/mL (≈ 59.1 µM) and the MIC (S. aureus; [7]) was 64 µg/mL (≈ 118 µM). For the same molecule, the MIC (S. aureus; [8]) was 64 µg/mL (≈ 118 µM), the MIC [1] was over 64 µg/mL and the MIC [2] was over 64 µg/mL. The MIC (S. pneumoniae) was 64 µg/mL (≈ 118 µM), the MIC [3] was over 64 µg/mL and the MIC (P. aeruginosa ATCC 27853) was over 64 µg/mL. The MIC [4] was over 64 µg/mL, the MIC (H. influenzae ATCC 49247) was over 64 µg/mL and the MIC (Gram-Negative Organisms; [9]) was over 64 µg/mL. The MIC (Gram-Negative Organisms; [10]) was over 64 µg/mL, the MIC (Gram-Negative Organisms; [11]) was 4 µg/mL (≈ 7.38 µM) and the MIC (Gram-Negative Organisms; [12]) was 4 µg/mL (≈ 7.38 µM). The MIC (Gram-Negative Organisms; [13]) was 4 µg/mL (≈ 7.38 µM) and the MIC (Gram-Negative Organisms; [14]) was over 64 µg/mL.
